According to patent publication US20260062387A1, “SALT-INDUCIBLE KINASE INHIBITOR COMPOUND AND PHARMACEUTICAL COMPOSITION INCLUDING THE SAME” (MITSUBISHI TANABE PHARMA CORPORATION, priority 2023, published 2026):
pIC50: −log10 of the molar value. Marks after values point to notes of the source that are not given here.

How the values were obtained:
[1] = test system: TNF-α in serum of LPS-stimulated mice; test: TNF-α increase inhibition test in LPS-stimulated mouse serums; type: in vivo, BALB/c mice; details: 1 mg/kg oral, LPS intraperitoneal 30 minutes later, serum 1.5 hours later
Protocol: (§1) The compound of Example 106 was used as the test compound.
Six-week old male BALB/c mice were orally administered with a suspension (10 mL/kg) of a concentration of the test compound in 0.5% methylcellulose (MC) solution. 30 Minutes later, […] of LPS (Sigma Aldrich) was intraperitoneally administered. […] The amount of TNF-α production in the serum was measured using CBA […] TNF Flex Set (BD Bioscience).
The inhibitory ratio (%) was calculated by: % Inhibition={1−(amount of TNF-α production in sample−average amount of TNF-α production without stimulus (MC administered, not LPS-stimulated)/(average amount of TNF-α production in control (MC administered, LPS-stimulated)−average amount of TNF-α production without stimulus (MC administered, not LPS-stimulated))}×100. The results are described in Table 4 below.

GST-tagged SIK3 = GST-tagged SIK3 (Homo sapiens (Human), UniProt Q9Y2K2); test: SIK3 inhibition test (ADP-Glo Max Assay); type: biochemical; details: enzyme 100 nM, AMARA Peptide 100 μM, ATP 1 mM, 2 hours room temperature
GST-tagged SIK3, sequence (Q9Y2K2 whole entry): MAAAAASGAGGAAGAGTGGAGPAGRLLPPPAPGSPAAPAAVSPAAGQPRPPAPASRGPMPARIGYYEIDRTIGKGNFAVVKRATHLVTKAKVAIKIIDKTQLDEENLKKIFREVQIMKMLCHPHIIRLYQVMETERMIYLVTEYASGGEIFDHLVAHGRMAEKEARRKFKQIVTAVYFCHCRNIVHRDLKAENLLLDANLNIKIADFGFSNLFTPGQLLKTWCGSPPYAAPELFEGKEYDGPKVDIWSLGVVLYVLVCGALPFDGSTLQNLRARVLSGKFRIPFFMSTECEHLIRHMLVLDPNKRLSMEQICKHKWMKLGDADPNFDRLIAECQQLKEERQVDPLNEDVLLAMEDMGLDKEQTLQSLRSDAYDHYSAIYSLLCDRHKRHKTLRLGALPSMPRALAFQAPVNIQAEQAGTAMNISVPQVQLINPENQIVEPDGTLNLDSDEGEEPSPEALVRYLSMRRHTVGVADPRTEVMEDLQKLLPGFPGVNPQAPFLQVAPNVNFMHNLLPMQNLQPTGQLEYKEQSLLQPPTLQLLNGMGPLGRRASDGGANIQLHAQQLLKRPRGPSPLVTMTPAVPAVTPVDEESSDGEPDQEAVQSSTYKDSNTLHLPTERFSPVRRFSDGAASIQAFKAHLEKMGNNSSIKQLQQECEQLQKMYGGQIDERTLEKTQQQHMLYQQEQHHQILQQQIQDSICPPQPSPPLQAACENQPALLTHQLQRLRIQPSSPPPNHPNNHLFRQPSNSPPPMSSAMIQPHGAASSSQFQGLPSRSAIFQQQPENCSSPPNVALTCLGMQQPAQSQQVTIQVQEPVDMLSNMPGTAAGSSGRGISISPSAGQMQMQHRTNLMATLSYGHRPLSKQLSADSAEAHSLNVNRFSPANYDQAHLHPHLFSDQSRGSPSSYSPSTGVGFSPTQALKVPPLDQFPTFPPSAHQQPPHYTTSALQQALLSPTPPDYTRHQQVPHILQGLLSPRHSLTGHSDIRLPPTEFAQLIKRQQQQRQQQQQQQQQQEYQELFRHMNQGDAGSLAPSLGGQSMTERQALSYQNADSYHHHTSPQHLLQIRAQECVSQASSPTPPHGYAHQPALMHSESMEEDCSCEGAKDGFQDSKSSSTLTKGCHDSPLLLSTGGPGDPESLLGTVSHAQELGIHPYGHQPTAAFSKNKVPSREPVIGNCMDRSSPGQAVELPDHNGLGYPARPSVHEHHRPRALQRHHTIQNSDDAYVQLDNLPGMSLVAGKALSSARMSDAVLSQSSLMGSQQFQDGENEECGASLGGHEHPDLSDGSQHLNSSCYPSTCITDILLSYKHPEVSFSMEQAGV
Summary of the method: (§2)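 GST-tagged human SIK1, SIK2 and SIK3 at 20 nM, 3 nM and 100 nM final in Tris pH 7.5 buffer, with AMARA peptide (200 μM for SIK1/SIK2, 100 μM for SIK3), 1 mM ATP and 5 mM MgCl2. Reaction ran 2 h at room temperature. ADP read by ADP-Glo Max luminescence, and IC50 fitted from 16 concentrations.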

GST-tagged SIK2 = GST-tagged SIK2 (Homo sapiens (Human), UniProt Q9H0K1); test: SIK2 inhibition test (ADP-Glo Max Assay); type: biochemical; details: enzyme 3 nM, AMARA Peptide 200 μM, ATP 1 mM, 2 hours room temperature
GST-tagged SIK2, sequence (Q9H0K1 whole entry): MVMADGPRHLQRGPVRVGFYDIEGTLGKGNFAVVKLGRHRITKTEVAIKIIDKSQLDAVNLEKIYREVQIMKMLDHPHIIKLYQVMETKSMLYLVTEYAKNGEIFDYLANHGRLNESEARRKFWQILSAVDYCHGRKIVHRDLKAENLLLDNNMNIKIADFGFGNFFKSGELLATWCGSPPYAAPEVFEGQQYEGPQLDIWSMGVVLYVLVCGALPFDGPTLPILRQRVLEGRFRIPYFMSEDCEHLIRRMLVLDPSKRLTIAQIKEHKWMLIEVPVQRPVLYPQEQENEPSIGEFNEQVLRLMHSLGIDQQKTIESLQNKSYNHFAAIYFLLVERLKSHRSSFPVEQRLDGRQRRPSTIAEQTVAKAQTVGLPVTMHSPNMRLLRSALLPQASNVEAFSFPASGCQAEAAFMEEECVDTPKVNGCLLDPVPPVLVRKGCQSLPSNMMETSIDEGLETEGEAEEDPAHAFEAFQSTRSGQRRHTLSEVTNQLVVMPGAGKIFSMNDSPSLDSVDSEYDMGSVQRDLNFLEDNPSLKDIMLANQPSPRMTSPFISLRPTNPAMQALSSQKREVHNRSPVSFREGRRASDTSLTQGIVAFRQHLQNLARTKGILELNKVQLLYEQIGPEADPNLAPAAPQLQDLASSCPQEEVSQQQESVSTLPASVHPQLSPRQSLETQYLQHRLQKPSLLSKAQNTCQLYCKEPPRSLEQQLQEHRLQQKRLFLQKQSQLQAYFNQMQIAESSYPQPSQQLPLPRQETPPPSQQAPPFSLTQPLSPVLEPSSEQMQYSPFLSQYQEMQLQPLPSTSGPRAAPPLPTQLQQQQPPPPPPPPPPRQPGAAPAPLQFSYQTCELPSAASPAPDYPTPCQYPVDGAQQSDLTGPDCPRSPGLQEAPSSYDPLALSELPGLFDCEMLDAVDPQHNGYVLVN
Summary of the method: as §2

[2] = test system: TNF-α production in LPS-stimulated human monocytes; test: TNF-α production inhibition test in LPS-stimulated human monocytes; type: cell-based; details: Monocyte, LPS 100 ng/mL, 4 hours
Protocol: as §1
Cryopreserved mononuclear cells derived from human peripheral blood (LONZA K. K.) were thawed at 37° C., and human monocytes were isolated using CD14 Microfleads (Miltenyi Biotec). The isolated human monocytes were mixed with a culture medium (RPMI 1640, 10% FBS, penicillin, streptomycin), and a DMSO solution of a concentration of the test compound was added. The mixture was incubated at 37° C. for 30 minutes. After the incubation, lipopolysaccharide (LPS; Sigma Aldrich) was added so that the final concentration would be 100 ng/mL. The mixture was incubated at 37° C. for 4 hours. After the incubation, the supernatant was recovered and cryopreserved at −80° C. The cryopreserved supernatant was thawed and the amount of TNF-α production in the supernatant was measured using CBA Human TNF Flex Set (BD Bioscience).
Inhibitory ratio (%) was calculated by: % Inhibition={1−(amount of TNF-α production in sample−amount of TNF-α production without stimulus (DMSO added, not LPS-stimulated))/(amount of TNF-α production in control (DMSO added, LPS-stimulated)−amount of TNF-α production without stimulus (DMSO added, not LPS-stimulated))}×100. The inhibitory concentration IC50was calculated based on 4 data values obtained in the concentration response test.

GST-tagged SIK1 = GST-tagged SIK1 (Homo sapiens (Human), UniProt P57059); test: SIK1 inhibition test (ADP-Glo Max Assay); type: biochemical; details: enzyme 20 nM, AMARA Peptide 200 μM, ATP 1 mM, 2 hours room temperature
GST-tagged SIK1, sequence (P57059 whole entry): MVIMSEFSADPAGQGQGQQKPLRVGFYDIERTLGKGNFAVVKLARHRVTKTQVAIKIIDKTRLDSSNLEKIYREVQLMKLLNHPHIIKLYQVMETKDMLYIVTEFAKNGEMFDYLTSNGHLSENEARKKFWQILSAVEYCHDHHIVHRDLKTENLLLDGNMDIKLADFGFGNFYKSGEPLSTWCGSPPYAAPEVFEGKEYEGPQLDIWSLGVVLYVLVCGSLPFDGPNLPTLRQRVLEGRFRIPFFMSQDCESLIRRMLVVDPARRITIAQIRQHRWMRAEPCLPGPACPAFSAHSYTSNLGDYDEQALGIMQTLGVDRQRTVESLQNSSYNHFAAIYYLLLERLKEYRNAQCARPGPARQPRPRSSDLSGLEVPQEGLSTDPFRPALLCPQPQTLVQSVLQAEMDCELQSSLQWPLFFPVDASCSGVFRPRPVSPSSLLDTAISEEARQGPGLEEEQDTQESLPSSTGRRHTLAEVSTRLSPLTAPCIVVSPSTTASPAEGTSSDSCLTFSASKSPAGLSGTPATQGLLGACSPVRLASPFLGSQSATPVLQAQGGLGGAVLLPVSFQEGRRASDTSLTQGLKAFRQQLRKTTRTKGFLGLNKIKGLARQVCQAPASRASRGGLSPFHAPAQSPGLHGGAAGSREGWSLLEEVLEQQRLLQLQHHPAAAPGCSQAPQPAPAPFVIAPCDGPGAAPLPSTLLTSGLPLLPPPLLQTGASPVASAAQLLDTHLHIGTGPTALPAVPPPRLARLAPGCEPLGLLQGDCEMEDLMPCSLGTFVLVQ
Summary of the method: as §2

| Structure (SMILES) | TNF α increase inhibition ratio [1] | pIC50 (GST-tagged SIK3) | pIC50 (GST-tagged SIK2) | pIC50 [2] | pIC50 (GST-tagged SIK1) |
| --- | --- | --- | --- | --- | --- |
| CCCn1cc(-c2cc(C#N)c3c(-c4cc(OC)c5c(c4)[C@@H](C)CNC5=O)n(C)nc3c2)cn1 (single isomer, unassigned) [Example 106] | 47.2** % | 8.17 | 8.51 | 7.72 | 8.10 |
| Cn1cc(-c2cc(C#N)c3c(-c4cc(OC(F)F)c5c(c4)C(C)(C)CNC5=O)n(C)nc3c2)cn1 [Example 162, 3-[8-(difluoromethoxy)-4,4-dimethyl-1-oxo-2,3-dihydroisoquinolin-6-yl]-2-methyl-6-(1-methylpyrazol-4-yl)indazol-4-carbonitrile] | – | 8.49 | 8.60 | – | 8.09 |
